# Data as given in patent publication US8937048B2, “Anti-angiogenic compounds” (Covx Technologies Ireland, Limited, priority 2008, dated 2015).
# Where a SMILES comes first, the peptide text is derived from it. Bridges are numbered along the chain shown (N, C = ends). [ ]: non-standard residue; d: D form. Nle = CCCC[C@H](N)C(=O)O
# Target: T1, recombinant human VEGF165 (Homo sapiens, UniProt P15692)
# T1 sequence (P15692 27-191 isoform P15692-4): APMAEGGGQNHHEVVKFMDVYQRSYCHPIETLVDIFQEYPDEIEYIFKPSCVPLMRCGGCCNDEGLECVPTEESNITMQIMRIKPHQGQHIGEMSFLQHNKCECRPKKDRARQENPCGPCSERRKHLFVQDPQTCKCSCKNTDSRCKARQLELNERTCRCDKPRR
# Test: VEGF peptide binding assay (competition ELISA, VEGF165 binding to coated VEGFR2/Fc)
# Method in brief: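 VEGFR2/Fc was coated, and peptides (0.128–10,000 nM, N-acetyl, C-amide) were preincubated with 25 ng/ml human VEGF165 and added for 1 h at RT. Bound VEGF was detected with biotinylated anti-VEGF, streptavidin-HRP and TMB at OD450. IC50 came from sigmoid dose-response fits of OD450 versus concentration.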
row,Compound,IC50 [nM]
1,"CC[C@H](C)[C@@H]1NC(=O)[C@H](CC(=O)O)NC(=O)[C@@H](NC(=O)[C@H](CC(N)=O)NC(=O)[C@@H]2CCCN2C(=O)[C@H](CCC(=O)O)NC(=O)[C@@H](NC(C)=O)C(C)C)CSSC[C@@H](C(=O)N[C@@H](Cc2ccccc2)C(=O)N[C@@H](CCC(=O)O)C(=O)N[C@@H](CCCNC(=N)N)C(=O)N[C@@H](CC(C)C)C(=O)N[C@@H](Cc2ccc(O)cc2)C(=O)NCC(=O)NCC(N)=O)NC(=O)[C@H](CCC(=O)O)NC(=O)[C@H](Cc2c[nH]c3ccccc23)NC(=O)[C@H](C(C)C)NC(=O)[C@H](Cc2c[nH]c3ccccc23)NC(=O)[C@H](CCSC)NC(=O)[C@H](C(C)C)NC(=O)[C@H](Cc2c[nH]cn2)NC1=O [Compound 52, VEPNCDIHVMWVWECFERLYGG] (Ac-VEPNCDIHVMWVWECFERLYGG-NH2; disulfide 5-15 (inferred))",32.3
2,"CC[C@H](C)[C@@H]1NC(=O)[C@H](CC(=O)O)NC(=O)[C@@H](NC(=O)[C@H](CC(N)=O)NC(=O)[C@@H]2CCCN2C(=O)[C@H](CCC(=O)O)NC(=O)[C@@H](NC(C)=O)C(C)C)CSSC[C@@H](C(=O)N[C@@H](Cc2ccccc2)C(=O)N[C@@H](CCC(=O)O)C(=O)N[C@@H](CCCNC(=N)N)C(=O)N[C@@H](CC(C)C)C(=O)N[C@@H](Cc2ccc(O)cc2)C(=O)N[C@@H](CCCNC(=N)N)C(=O)N[C@@H](CCC(=O)O)C(=O)N[C@@H](CC(C)C)C(N)=O)NC(=O)[C@H](CCC(=O)O)NC(=O)[C@H](Cc2c[nH]c3ccccc23)NC(=O)[C@H](C(C)C)NC(=O)[C@H](Cc2c[nH]c3ccccc23)NC(=O)[C@H](CCSC)NC(=O)[C@H](C(C)C)NC(=O)[C@H](Cc2c[nH]cn2)NC1=O [Compound 39, VEPNCDIHVMWVWECFERLYREL] (Ac-VEPNCDIHVMWVWECFERLYREL-NH2; disulfide 5-15 (inferred))",70
3,"CC[C@H](C)[C@@H]1NC(=O)[C@H](CC(=O)O)NC(=O)[C@@H](NC(=O)[C@H](CC(N)=O)NC(=O)[C@@H]2CCCN2C(=O)[C@H](CCC(=O)O)NC(=O)[C@@H](NC(C)=O)C(C)C)CSSC[C@@H](C(=O)N[C@@H](Cc2ccccc2)C(=O)N[C@@H](CCC(=O)O)C(=O)N[C@@H](CCCNC(=N)N)C(=O)N[C@@H](CC(C)C)C(=O)N[C@@H](Cc2ccc(O)cc2)C(=O)NCC(=O)N2CCC[C@H]2C(=O)N[C@@H](CC(C)C)C(N)=O)NC(=O)[C@H](CCC(=O)O)NC(=O)[C@H](Cc2c[nH]c3ccccc23)NC(=O)[C@H](C(C)C)NC(=O)[C@H](Cc2c[nH]c3ccccc23)NC(=O)[C@H](CCSC)NC(=O)[C@H](C(C)C)NC(=O)[C@H](Cc2c[nH]cn2)NC1=O [Compound 76, VEPNCDIHVMWVWECFERLYGPL] (Ac-VEPNCDIHVMWVWECFERLYGPL-NH2; disulfide 5-15 (inferred))",2.3
4,"CC[C@H](C)[C@@H]1NC(=O)[C@H](CC(=O)O)NC(=O)[C@@H](NC(=O)[C@H](CC(N)=O)NC(=O)[C@@H]2CCCN2C(=O)[C@H](CCC(=O)O)NC(=O)[C@@H](NC(C)=O)C(C)C)CSSC[C@@H](C(=O)N[C@@H](Cc2ccccc2)C(=O)N[C@@H](CCC(=O)O)C(=O)N[C@@H](CCCNC(=N)N)C(=O)N[C@@H](CC(C)C)C(=O)N[C@@H](Cc2ccc(O)cc2)C(=O)NCC(=O)N[C@@H](CC(C)C)C(=O)N[C@@H](CCC(=O)O)C(N)=O)NC(=O)[C@H](CCC(=O)O)NC(=O)[C@H](Cc2c[nH]c3ccccc23)NC(=O)[C@H](C(C)C)NC(=O)[C@H](Cc2c[nH]c3ccccc23)NC(=O)[C@H](CCSC)NC(=O)[C@H](C(C)C)NC(=O)[C@H](Cc2c[nH]cn2)NC1=O [Compound 75, VEPNCDIHVMWVWECFERLYGLE] (Ac-VEPNCDIHVMWVWECFERLYGLE-NH2; disulfide 5-15 (inferred))",3
5,"CC[C@H](C)[C@@H]1NC(=O)[C@H](CC(=O)O)NC(=O)[C@@H](NC(=O)[C@H](CC(N)=O)NC(=O)[C@@H]2CCCN2C(=O)[C@H](CCC(=O)O)NC(=O)[C@@H](NC(C)=O)C(C)C)CSSC[C@@H](C(=O)N[C@@H](Cc2ccccc2)C(=O)N[C@@H](CCC(=O)O)C(=O)N[C@@H](CCCNC(=N)N)C(=O)N[C@@H](CC(C)C)C(=O)N[C@@H](CCSC)C(=O)N[C@@H](CCCNC(=N)N)C(N)=O)NC(=O)[C@H](CCC(=O)O)NC(=O)[C@H](Cc2c[nH]c3ccccc23)NC(=O)[C@H](C(C)C)NC(=O)[C@H](Cc2c[nH]c3ccccc23)NC(=O)[C@H](CCSC)NC(=O)[C@H](C(C)C)NC(=O)[C@H](Cc2c[nH]cn2)NC1=O [Compound 49, VEPNCDIHVMWVWECFERLMR] (Ac-VEPNCDIHVMWVWECFERLMR-NH2; disulfide 5-15 (inferred))",34.5
6,"CC[C@H](C)[C@@H]1NC(=O)[C@H](CC(=O)O)NC(=O)[C@@H](NC(=O)[C@H](CC(N)=O)NC(=O)[C@@H]2CCCN2C(=O)[C@H](CCC(=O)O)NC(=O)[C@@H](NC(C)=O)C(C)C)CSSC[C@@H](C(=O)N[C@@H](Cc2ccccc2)C(=O)N[C@@H](CCC(=O)O)C(=O)N[C@@H](CCCNC(=N)N)C(=O)N[C@@H](CC(C)C)C(=O)N[C@@H](CCSC)C(=O)N[C@@H](CCCCN)C(=O)N[C@@H](CCC(=O)O)C(=O)N[C@@H](CC(C)C)C(N)=O)NC(=O)[C@H](CCC(=O)O)NC(=O)[C@H](Cc2c[nH]c3ccccc23)NC(=O)[C@H](C(C)C)NC(=O)[C@H](Cc2c[nH]c3ccccc23)NC(=O)[C@H](CCSC)NC(=O)[C@H](C(C)C)NC(=O)[C@H](Cc2c[nH]cn2)NC1=O [Compound 65, VEPNCDIHVMWVWECFERLMKEL] (Ac-VEPNCDIHVMWVWECFERLMKEL-NH2; disulfide 5-15 (inferred))",18
7,"CC[C@H](C)[C@@H]1NC(=O)[C@H](CC(=O)O)NC(=O)[C@@H](NC(=O)[C@H](CC(N)=O)NC(=O)[C@@H]2CCCN2C(=O)[C@H](CCC(=O)O)NC(=O)[C@@H](NC(C)=O)C(C)C)CSSC[C@@H](C(=O)N[C@@H](Cc2ccccc2)C(=O)N[C@@H](CCC(=O)O)C(=O)N[C@@H](CCCNC(=N)N)C(=O)N[C@@H](CC(C)C)C(=O)N[C@@H](Cc2ccc(O)cc2)C(=O)NCC(=O)N[C@@H](CCC(=O)O)C(=O)N[C@@H](Cc2ccccc2)C(N)=O)NC(=O)[C@H](CCC(=O)O)NC(=O)[C@H](Cc2c[nH]c3ccccc23)NC(=O)[C@H](C(C)C)NC(=O)[C@H](Cc2c[nH]c3ccccc23)NC(=O)[C@H](CCSC)NC(=O)[C@H](C(C)C)NC(=O)[C@H](Cc2c[nH]cn2)NC1=O [Compound 70, VEPNCDIHVMWVWECFERLYGEF] (Ac-VEPNCDIHVMWVWECFERLYGEF-NH2; disulfide 5-15 (inferred))",9.3
8,"CCCC[C@H](NC(=O)[C@H](CC(C)C)NC(=O)[C@H](CCCNC(=N)N)NC(=O)[C@H](CCC(=O)O)NC(=O)[C@H](Cc1ccccc1)NC(=O)[C@@H]1CSSC[C@H](NC(=O)[C@H](CC(N)=O)NC(=O)[C@@H]2CCCN2C(=O)[C@H](CCC(=O)O)NC(=O)[C@@H](NC(C)=O)C(C)C)C(=O)N[C@@H](CC(=O)O)C(=O)N[C@@H]([C@@H](C)CC)C(=O)N[C@@H](Cc2c[nH]cn2)C(=O)N[C@@H](C(C)C)C(=O)N[C@@H](CCSC)C(=O)N[C@@H](Cc2c[nH]c3ccccc23)C(=O)N[C@@H](C(C)C)C(=O)N[C@@H](Cc2c[nH]c3ccccc23)C(=O)N[C@@H](CCC(=O)O)C(=O)N1)C(=O)N[C@@H](CCCCN)C(N)=O [Compound 54, V-E-P-N-C-D-I-H-V-M-W-V-W-E-C-F-E-R-L-(Nle)-K] (Ac-VEPNCDIHVMWVWECFERL[Nle]K-NH2; disulfide 5-15 (inferred))",28.6
